Data as given in publication PMC8297715 (ACS chemical biology, 2020).

Key:
[1] = target: T1, human AChE (Homo sapiens, UniProt P22303); settings: cited from earlier work
[2] = target: T2, human nSMase2 (Homo sapiens, UniProt Q9NY59); assay: Amplex Red neutral sphingomyelinase enzyme activity assay; type: biochemical
T2 sequence (Q9NY59 1-655): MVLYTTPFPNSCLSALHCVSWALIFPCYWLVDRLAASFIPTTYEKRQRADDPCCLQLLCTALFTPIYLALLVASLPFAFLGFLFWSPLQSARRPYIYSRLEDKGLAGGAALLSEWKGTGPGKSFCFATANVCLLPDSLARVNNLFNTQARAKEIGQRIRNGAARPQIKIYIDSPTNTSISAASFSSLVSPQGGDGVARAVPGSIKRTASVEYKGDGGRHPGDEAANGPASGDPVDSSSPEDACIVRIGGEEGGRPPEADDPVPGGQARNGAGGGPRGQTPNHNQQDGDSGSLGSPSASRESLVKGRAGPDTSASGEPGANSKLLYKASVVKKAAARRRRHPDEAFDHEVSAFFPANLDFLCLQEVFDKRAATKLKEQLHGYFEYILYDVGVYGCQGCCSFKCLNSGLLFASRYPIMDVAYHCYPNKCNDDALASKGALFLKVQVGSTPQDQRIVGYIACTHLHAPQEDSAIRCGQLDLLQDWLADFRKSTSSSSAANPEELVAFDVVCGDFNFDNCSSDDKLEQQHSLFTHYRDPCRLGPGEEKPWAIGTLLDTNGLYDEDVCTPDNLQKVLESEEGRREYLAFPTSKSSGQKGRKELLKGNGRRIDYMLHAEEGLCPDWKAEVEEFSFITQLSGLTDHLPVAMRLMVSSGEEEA

[3] = system: HEK293T Tau RD P301S FRET biosensor (tau biosensor); settings: previously published; cited from earlier work
[4] = target: T1, human AChE; assay: Amplex Red acetylcholinesterase; type: biochemical; settings: read-out: AChE inhibition IC50; dose-response; human AChE (Sigma)
[5] = system: HEK293T Tau RD P301S FRET biosensor (tau biosensor); assay: EV-mediated transfer; type: cell-based; settings: 20 μM

T1 sequence (P22303 32-614): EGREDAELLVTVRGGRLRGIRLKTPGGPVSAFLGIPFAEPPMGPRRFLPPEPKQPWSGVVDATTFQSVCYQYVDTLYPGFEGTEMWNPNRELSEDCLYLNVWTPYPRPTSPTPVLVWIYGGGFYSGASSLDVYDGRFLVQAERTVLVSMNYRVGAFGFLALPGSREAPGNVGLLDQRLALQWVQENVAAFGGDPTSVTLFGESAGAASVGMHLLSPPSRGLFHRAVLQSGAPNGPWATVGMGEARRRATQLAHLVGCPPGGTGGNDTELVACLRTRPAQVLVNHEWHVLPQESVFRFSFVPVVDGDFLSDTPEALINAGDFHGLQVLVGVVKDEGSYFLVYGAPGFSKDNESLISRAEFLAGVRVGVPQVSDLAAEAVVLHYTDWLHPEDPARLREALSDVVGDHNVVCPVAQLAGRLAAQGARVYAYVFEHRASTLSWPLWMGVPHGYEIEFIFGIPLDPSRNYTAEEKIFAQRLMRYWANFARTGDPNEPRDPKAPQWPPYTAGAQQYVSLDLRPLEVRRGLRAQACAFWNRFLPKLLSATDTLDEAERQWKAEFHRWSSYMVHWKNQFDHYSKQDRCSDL

SMILES: CN1CC[C@]2(C)c3cc(OC(=O)Nc4ccccc4)ccc3N(C)[C@H]12 [Posiphen]
- AChE inhibitor activity ([1]; reported): weak AChE inhibitor
- IC50 [2]: > 50 µM

SMILES: O=c1[nH]c(=S)[nH]c(-c2ccccc2)c1Cc1c(O)ccc2ccccc12 [cambinol]
- AChE activity ([1]; previously published): no AChE activity
- tau seed transfer in the EMT assay [3]: shows inhibition of tau seed transfer

SMILES: CN1c2ccc(OC(=O)Nc3ccccc3)cc2[C@]2(C)CCO[C@H]12 [compound 1, (−)-phensvenine]
- IC50 [4]: 0.5 µM

SMILES: CN1CC[C@@]2(C)c3cc(OC(=O)Nc4ccccc4)ccc3N(C)[C@@H]12 [phenserine]
- IC50 [2]: > 50 µM

SMILES: CCN(C)C(=O)Oc1cccc([C@H](C)N(C)C)c1 [rivastigmine]
- EV-mediated tau seed transfer, EMT assay [5]: partially suppress
- nSMase2 activity [2]: no nSMase2 activity
